# Test results: US9862690B2, “Treatment of pulmonary and other conditions” (University of Pittsburgh—of the Commonwealth System of …, priority 2013, dated 2018)
# Columns and labels:
# [1] = FRAP assay (ferric reduction/anti-oxidant power); format: biochemical; settings: 10 μmol compound, 5 min, 593 nm; Troxol reference
# Method: The antioxidant activity of PB141 was determined by ferric reduction/anti-oxidant power (FRAP) assay in which the compound is reacted with ferric tripyridyltriazine complex. Data are representative of one of two independent experiments; n=3; *** P<0.001 versus Troxol.
# The antioxidant activity of PB141 or PB157 was determined by ferric reduction/anti-oxidant power (FRAP) assay in which the compounds are reacted with ferric tripyridyltriazine complex. The ferric complex was prepared at room temperature by reaction of ferric chloride (16.7 mmol) and 2,4,6-trispyridyl-s-triazine (8.33 mmol) in pH 3.6 acetate buffer (0.25 M). The FRAP reagent was used immediately after preparation. PB141 or PB157 (10 μmol) was added to the FRAP reagent (1 ml) and mixed by vortexing. The reaction was allowed to stabilize for 5 min and the absorbance was measured. The antioxidant activities of these compounds were determined by the ability to reduce the ferric complex to a […] ferrous complex, monitored at 593 nm. Troxol (10 μmol) was used as reference standard.
# Nrf2 = Nrf2 DNA-binding activity and nuclear concentration in BEAS-2B cells; format: cell-based; settings: different concentrations, 24 h
# Method: BEAS-2B cells were treated with varying concentrations of PB141 for 24 h, after which (A) Nrf2 activity was measured or (C) nuclear Nrf2 concentration was determined by Western blotting. (B) In other experiments cells were pretreated with varying concentrations of PB141 for 1 h, then with LPS (500 ng/ml) for 6 h. Cells were then isolated and activity of NF-κB was measured.
# BEAS-2B cells were cultured in Dulbecco's modified Eagle's medium (DMEM) containing 10% heat-inactivated fetal bovine serum, penicillin, and streptomycin (100 IU/ml). Monolayer cultures were treated with different concentrations of PB141 for 24 h. Cells were then isolated and the DNA-binding activity of the antioxidant transcription factor Nrf2 was determined. The nuclear concentration of Nrf2 was also determined by Western blotting. […] In some experiments monolayer cultures were deprived of serum for 24 h, pre-treated with different concentrations of PB141 for 1 h, then exposed to LPS for 6 h. Nuclear proteins were prepared and were used to quantify DNA-binding activity of the p65 subunit of NF-κB.
# p65 subunit of NF-κB = target: T1, p65 subunit of NF-κB (Mus musculus, UniProt Q04207); test: LPS-induced lung NF-κB p65 DNA-binding activity after nebulized delivery; format: in vivo, mice; settings: i.t. LPS; different concentrations nebulized 30 min later for 30 min
# T1 construct: Following sacrifice, nuclear proteins were isolated from lungs; from tissue; host or cells: mouse lung (nuclear proteins)
# T1 sequence (Q04207 whole entry): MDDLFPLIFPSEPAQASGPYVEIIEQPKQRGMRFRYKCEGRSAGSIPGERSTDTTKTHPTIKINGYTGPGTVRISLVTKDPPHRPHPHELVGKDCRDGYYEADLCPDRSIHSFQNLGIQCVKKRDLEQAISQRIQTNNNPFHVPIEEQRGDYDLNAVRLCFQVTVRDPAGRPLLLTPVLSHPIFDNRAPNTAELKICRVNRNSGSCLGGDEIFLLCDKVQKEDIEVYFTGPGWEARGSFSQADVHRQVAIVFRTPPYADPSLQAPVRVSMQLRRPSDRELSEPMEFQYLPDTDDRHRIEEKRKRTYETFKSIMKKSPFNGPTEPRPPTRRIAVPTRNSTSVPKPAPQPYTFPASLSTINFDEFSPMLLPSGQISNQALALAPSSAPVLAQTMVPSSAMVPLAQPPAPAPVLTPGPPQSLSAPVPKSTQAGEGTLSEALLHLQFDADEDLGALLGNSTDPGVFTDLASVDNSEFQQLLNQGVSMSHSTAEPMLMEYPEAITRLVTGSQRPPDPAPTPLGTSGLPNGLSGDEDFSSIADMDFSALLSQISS
# Method: PB141 was delivered to mice by nebulization at doses of 25 or 250 mg/kg for up to 30 days. (A) Lungs were excised, sectioned, and examined histologically for evidence of inflammation or injury. (B) Potential kidney and liver injury were assessed by serum levels of creatinine, AST, and ALT. […] Acute lung injury was induced in mice by intratracheal administration of LPS. Thirty min later PBS or varying concentrations of PB141 were delivered into cage air by nebulization. Following sacrifice, nuclear proteins were isolated from lungs and used to determine DNA-binding activity of the p65 subunit of the pro-inflammatory transcription factor NF-κB.
# In other experiments, acute lung injury was induced by intratracheal (i.t.) injection of endotoxin [lipopolysaccharide (LPS)] prepared from Escherichia coli O111:B6 (Sigma-Aldrich; St. Louis, Mo.). Thirty minutes later different concentrations of PB141 in isotonic saline were nebulized and delivered into cage air for 30 min using a micropump nebulizer (Buxco Research Systems, Wilmington, N.C.) fitted at the chamber inlet and flowing at 10 L of air/min. PBS was similarly delivered as a control. Nuclear proteins were prepared from lung samples and their concentrations were determined and used to quantify DNA-binding activity of the p65 subunit of the pro-inflammatory transcription factor NF-κB.
# alveolar macrophages = test: Gene expression in alveolar macrophages isolated from BAL fluid of treated mice (real-time PCR); format: in vivo; settings: mice given LPS then 25 mg/kg nebulized
# Method: Induction of ALI by intratracheal injection of LPS (50 μg) was followed 30 min later by nebulization of PB141 (25 mg/kg) or vehicle (saline) and delivery to cage air via a micropump nebulizer. After another 5.5 h BAL fluid was obtained. Alveolar macrophages were isolated from the BAL fluid and plated in DMEM+10% FBS. After 1 h, RNA was isolated and expression of the indicated genes was determined using real-time PCR; results were normalized to values for the housekeeping genes glyceraldehyde-3-phosphate dehydrogenase (GAPDH) and […]. Data are representative of one of two independent experiments with n=6-8 mice per group; **P<0.01; ***P<0.001.
# For additional in vitro studies, after the treatment described above alveolar macrophages were isolated from the BAL fluid and plated in DMEM+10% FBS. After 1 h, RNA was isolated and expression of the different genes was determined using real-time PCR; results were normalized to values for the housekeeping genes glyceraldehyde-3-phosphate dehydrogenase (GAPDH) and […]. […] In other experiments, PMNs were isolated from peripheral blood of endotoxin-treated mice by hetastarch exchange transfusion. PMN adhesion was assessed with the Cytoselect Leukocyte-Endothelium Adhesion Assay kit (CBA-210; Cell Biolabs) and transendothelial PMN migration was determined with the Cytoselect Leukocyte Transmigration Assay kit (CBA-212; Cell Biolabs).
# [2] = tested on: human lung adenocarcinoma cell lines (NCI-H661, NCI-H441 and NCIH1299); test: Proliferation (BrdU) and apoptosis (TUNEL) of NNK-treated lung adenocarcinoma cells; format: cell-based; settings: pretreated 1 to 5 μM, then 1 μM NNK; data not shown
# Method: For further in vitro studies, human lung adenocarcinoma cell lines (NCI-H661, NCI-H441 and NCIH1299) were obtained from American Type Culture Collection. Cells were treated with 1 μM NNK for 1 hr. In some experiments cells were pretreated with 1 to 5 μM PB141 before treatment with NNK. Cell proliferation was assessed by BrdU proliferation kit (Roche Applied Science). Apoptosis was assessed by TUNEL assay.
smiles,measurement,setting,value
CC(=O)N[C@@H](CSC(CC(=O)CC(SC[C@H](NC(C)=O)C(=O)O)c1cnccn1)c1cnccn1)C(=O)O (some centres unmarked) [PB141],Antioxidant activity (reduction of ferric complex),[1],highly significant and approximately equal
same,DNA-binding activity of Nrf2,Nrf2,increased both nuclear localization and DNA-binding activity of Nrf2 in a concentration-dependent manner
same,Nuclear localization of Nrf2 (Western blotting),Nrf2,increased both nuclear localization and DNA-binding activity of Nrf2 in a concentration-dependent manner
same,LPS-induced upregulation of NF-κB in lung,p65 subunit of NF-κB,inhibited the LPS-induced upregulation of NF-κB in a concentration-dependent manner
same,Transcription of antioxidant genes in alveolar macrophages,alveolar macrophages,increased
same,Transcription of inflammatory genes in alveolar macrophages,alveolar macrophages,decreased
same,Apoptosis (TUNEL),[2],induced apoptosis
same,Cell proliferation (BrdU),[2],significantly decreased
